Laboratory results: patent publication US11857522B2, “Compositions containing tucaresol or its analogs” (BeyondSpring Pharmaceuticals, Inc., priority 2016, dated 2024)

Test system: MC-38 tumor cells
Test: MC-38 tumor model, comparison of tucaresol and CTLA-4 antibody (Example 9)
Assay type: in vivo, mice
Settings: FIG. 4
Description: The treatment with the combination of tucaresol, a PD-1 antibody, and CTLA-4 antibody was compared with the combination of PD-1 antibody and CTLA-4 antibody for their tumor inhibition effects. The tests were performed using seven to ten-week old immune competent mice that were injected subcutaneously with MC-38 tumor cells.
Three testing groups were prepared. Group A was administered with PD-1 antibody (3 mg/kg)/CTLA-4 antibody (3 mg/kg) combined treatment; Group B was administered with a tucaresol (10 mg/kg)/PD-1 antibody (3 mg/kg) CTLA-4 antibody (3 mg/kg) combined treatment; and Group C was administered with a PD-1 antibody (3 mg/kg)/CTLA-4 antibody (10 mg/kg) combined treatment. […]
Each treatment started at tumor size between 40-150 mm^3 and continued until Day 24. To determine the efficacy of each treatment, the following data were collected: mortality rate; the body weight of the mice assessed twice weekly both prior to treatments; the rate of tumor growth as determined by the tumor size measurement (twice every week); the tumor growth index; overall survival rate; the time required to double tumor size and the tumor weight at necropsy.

Question: `O=Cc1c(O)cccc1OCc1ccc(C(=O)O)cc1` [tucaresol, 4-[(2-formyl-3-hydroxy-phenoxy)methyl]benzoic acid] was tested. Which “anti-tumor effect of the combination (MC 38 tumor growth)” value (tucaresol 10 mg/kg added to PD-1 antibody (3 mg/kg)/CTLA-4 antibody (3 mg/kg), compared with raising CTLA-4 antibody from 3 mg/kg to 10 mg/kg, until Day 24) did it give?
Answer: increased the anti-tumor effect of the combination to a greater extent than increasing the dose of the CTLA-4 antibody

Question: And the inhibiting tumor growth (used together with immune checkpoint inhibitors such as PD-1 antibody, MC-38 tumors in mice)?
Answer: more effective in inhibiting tumor growth than CTLA-4 antibody
